These results are taken from publication PMC5895803, “Inhibition of cancer stem cell like cells by a synthetic retinoid” (Nature Communications, 2018).

One may read the IC50 as the concentration at which inhibition is half-maximal. Read a low IC50 as greater potency in that assay. By solubility is commonly meant the concentration that dissolves in the medium under given conditions. Higher therefore signals much dissolved substance. For orientation: inhibition means the share of the control response that was lost under treatment. High values mean a response far below the control, low ones a response near the control.

≈ marks a conversion by molar mass, not a printed value. Entries after “also recorded” stand apart in the source; their conditions may differ. Some results are limits rather than exact numbers.

One data set concerns the target hERG channels (Homo sapiens, UniProt Q12809). Briefly: Functional hERG blocking assay, patch clamp in CHO hERG cell line. For orientation: Block of hERG is tested as a sign of cardiac risk.
A further data set can be described thus: Water solubility. Particulars: PBS (pH 7.4), pH 7.4, aqueous buffer, kinetic from dmso stock.
The target in a further data set is T1, CYP 3A4 (Homo sapiens, UniProt P08684).
T1 construct: from tissue; host or cells: human liver microsomes
T1 sequence (P08684 whole entry): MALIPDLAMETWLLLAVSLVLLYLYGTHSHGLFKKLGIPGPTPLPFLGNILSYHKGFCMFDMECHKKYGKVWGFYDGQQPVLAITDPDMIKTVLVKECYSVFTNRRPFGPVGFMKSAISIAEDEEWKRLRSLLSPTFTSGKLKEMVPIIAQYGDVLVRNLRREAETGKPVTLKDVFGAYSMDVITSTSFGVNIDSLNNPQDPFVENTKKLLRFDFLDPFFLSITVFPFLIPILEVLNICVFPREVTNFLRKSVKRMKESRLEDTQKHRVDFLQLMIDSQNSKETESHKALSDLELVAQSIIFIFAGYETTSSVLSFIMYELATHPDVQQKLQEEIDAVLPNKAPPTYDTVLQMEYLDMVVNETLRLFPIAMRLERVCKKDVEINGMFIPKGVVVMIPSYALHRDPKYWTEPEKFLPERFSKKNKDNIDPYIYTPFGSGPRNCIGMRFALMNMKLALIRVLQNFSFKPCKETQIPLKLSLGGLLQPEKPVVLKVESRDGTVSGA
Briefly: Cytochromes enzyme inhibition assay, human liver microsomes. The class given is in vitro ADME.

The next data set addresses T2, CYP 2C19 (Homo sapiens, UniProt P33261).
T2 construct: from tissue; host or cells: human liver microsomes
Described as above. The settings on record: substrate S-mephenytoin (35 µM). In kind it is in vitro ADME.

For the next data set, the target named is T3, CYP 1A2 (Homo sapiens, UniProt P05177).
T3 construct: from tissue; host or cells: human liver microsomes
T3 sequence (P05177 whole entry): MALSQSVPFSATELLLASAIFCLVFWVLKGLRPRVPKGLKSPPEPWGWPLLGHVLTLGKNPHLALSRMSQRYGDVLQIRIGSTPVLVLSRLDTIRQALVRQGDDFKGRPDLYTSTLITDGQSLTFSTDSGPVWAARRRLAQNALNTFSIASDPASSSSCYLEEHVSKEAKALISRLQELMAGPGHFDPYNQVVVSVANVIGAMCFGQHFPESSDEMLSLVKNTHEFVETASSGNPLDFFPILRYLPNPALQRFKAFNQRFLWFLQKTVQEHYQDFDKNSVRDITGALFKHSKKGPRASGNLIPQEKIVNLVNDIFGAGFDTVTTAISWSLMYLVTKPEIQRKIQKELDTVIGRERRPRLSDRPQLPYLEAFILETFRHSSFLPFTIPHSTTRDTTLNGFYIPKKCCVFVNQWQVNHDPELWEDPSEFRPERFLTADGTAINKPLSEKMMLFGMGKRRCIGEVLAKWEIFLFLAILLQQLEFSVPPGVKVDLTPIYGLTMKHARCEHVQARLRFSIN
The data set is described as above. In kind it is in vitro ADME. The settings on record: substrate phenacetin (30 µM).

For another data set, the target named is T4, CYP 2C9 (Homo sapiens, UniProt P11712).
T4 construct: from tissue; host or cells: human liver microsomes
T4 sequence (P11712 whole entry): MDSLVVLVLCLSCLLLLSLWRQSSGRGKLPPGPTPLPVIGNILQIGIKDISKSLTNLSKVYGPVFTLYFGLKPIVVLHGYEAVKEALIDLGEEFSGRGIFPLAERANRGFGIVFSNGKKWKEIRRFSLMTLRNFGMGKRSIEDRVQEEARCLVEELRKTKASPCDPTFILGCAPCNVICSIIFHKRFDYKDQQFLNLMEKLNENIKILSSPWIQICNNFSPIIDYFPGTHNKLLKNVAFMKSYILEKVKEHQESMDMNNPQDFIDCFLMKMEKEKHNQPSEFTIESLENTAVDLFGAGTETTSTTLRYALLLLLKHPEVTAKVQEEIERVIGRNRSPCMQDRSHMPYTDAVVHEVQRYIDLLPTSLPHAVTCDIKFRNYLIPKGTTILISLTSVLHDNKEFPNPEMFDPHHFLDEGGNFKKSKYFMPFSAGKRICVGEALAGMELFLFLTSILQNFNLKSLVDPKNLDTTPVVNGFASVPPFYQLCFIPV
The data set is described as above. In kind it is in vitro ADME. Particulars: substrate diclofenac (10 µM).

Data set [1] deals with B16-F1 TRCs. Briefly: Colony growth of B16-F1 TRCs in 90-Pa 3D soft fibrin gels. Particulars: 10 µM added day 3, washed out day 4, 3 days after washout. The class given is cell-based, murine.
The target in a further data set is T5, CYP 2D6 (Homo sapiens, UniProt P10635).
T5 construct: from tissue; host or cells: human liver microsomes
T5 sequence (P10635 whole entry): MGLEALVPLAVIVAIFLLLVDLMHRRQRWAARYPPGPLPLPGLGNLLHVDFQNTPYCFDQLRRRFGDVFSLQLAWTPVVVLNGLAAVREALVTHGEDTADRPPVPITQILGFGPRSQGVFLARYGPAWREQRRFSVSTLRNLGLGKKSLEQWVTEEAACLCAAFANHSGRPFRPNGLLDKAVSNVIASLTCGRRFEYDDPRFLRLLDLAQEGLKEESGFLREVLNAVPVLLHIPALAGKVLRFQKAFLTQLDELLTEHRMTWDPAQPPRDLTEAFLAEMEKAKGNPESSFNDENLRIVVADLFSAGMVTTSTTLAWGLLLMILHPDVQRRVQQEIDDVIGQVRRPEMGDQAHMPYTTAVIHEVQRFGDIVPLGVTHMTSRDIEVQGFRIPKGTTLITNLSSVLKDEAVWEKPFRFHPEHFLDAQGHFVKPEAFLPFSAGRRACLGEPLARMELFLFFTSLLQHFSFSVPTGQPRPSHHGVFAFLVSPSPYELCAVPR
Briefly: Cytochromes enzyme inhibition assay, human liver microsomes. The class given is in vitro ADME. The settings on record: substrate bufuralol (10 µM). For orientation: Liver microsomes are a subcellular fraction often used to study metabolism.

Data set [2] deals with B16-F1 TRCs. Briefly: Colony growth of B16-F1 TRCs in 90-Pa 3D soft fibrin gels. The class given is cell-based, murine. The settings on record: for IC50 lower / potency higher than that of Tazarotene: B16-F1 TRC growth; for inhibition at 10 µM / IC50: Mus musculus; for inhibition at 10 µM: B16-F1, 10 μM, treated on day 0, day 5; for IC50: B16-F1 in 90-Pa fibrin gels, treated on day 0, colony size on day 5; for Growth after re-plating into new soft fibrin gels without compound: washed out.

For data set [3], the system named is unselected human cancer cells. Nature of the data set: Unselected human cancer cells on 2D rigid dishes. The class given is cell-based. The settings on record: 10 μM, 48 hours. The procedure:
Supplementary Figure 20. WYC-209 detaches adherent human cancer cells on rigid plastic. (a-e): human melanoma MDA-MB-435s (a), human breast cancer MCF-7 (b), human ovarian cancer A2780 (c), human malignant melanoma A375 (d), and human lung cancer A549 (e) were cultured on rigid plastics and treated with 0.1, 1, or 10 μM WYC-209, WYC-209A, or WYC-209B and cell numbers were measured for 48 hours. Cell nuclei were stained with DAPI. None: medium only; DMSO: medium containing 0.1% DMSO. Cell numbers per view field were quantified. Mean ± s.e.m.; n= 5 samples; 3 separate experiments; *P<0.05; ** P<0.01; *** P<0.001 […]
(§1) (1 picture or pasted object on this page, not shown here)

The test system of data set [4] is human melanoma MDA-MB-435s. Nature of the data set: Colony growth of MDA-MB-435s TRCs in 90-Pa fibrin gels. In kind it is cell-based. The procedure: (§2) Salmon fibrinogen and thrombin were purchased from Reagent Proteins (CA, USA). 3D fibrin gels were prepared as described previously[5],[6]. In brief, fibrinogen was diluted into 2 mg mL^−1 with T7 buffer (pH 7.4, 50 mM Tris, 150 mM NaCl). Cells were detached from 2D rigid dishes and cell density was adjusted to 10^4 cells per mL. Fibrinogen and cell solution mixture were made by mixing the same volume of fibrinogen solution and cell solution, resulting in 1 mg mL^−1 fibrinogen and 5000 cells per mL in the mixture fibrin gels. A volume of 50 μL cell/fibrinogen mixture was seeded into each well of 96-well plate and mixed well with pre-added 1 μL thrombin (100 U mL^−1). The cell culture plate was then incubated in 37 °C cell culture incubator for 10 min. Finally, 200 μL of DMEM medium containing 10% FBS and antibiotics was added.

The next data set relates to Mitf. Nature of the data set: Mitf expression by qPCR in TRCs. The class given is cell-based, murine. Particulars: 0.1–10 µM for 24 h. The method, then: (§3) Total mRNA was isolated from the cells using the Trizol reagent according to the supplier’s instruction (Invitrogen). Reverse transcription (RT) was performed using the TransScript First-strand cDNA Synthesis SuperMix (TransGen), according to the manufacturer’s protocol. Real-time RT-PCR was performed using GoTaq qPCR Master Mix (Promega). The data were normalized against mouse glyceraldehyde 3-phosphate dehydrogenase. The primer sequences are as follows: mouse GAPDH (F: 5′-[…]-3′, R: 5′-[…]-3′); mouse RARα (F: 5′-[…]-3′, R: 5′-[…]-3′); mouse RARβ (F: 5′-[…]-3′, R: 5′-[…]-3′); mouse RARγ (F: 5′-[…]-3′, R:5′-[…]-3′); mouse Sox2 (F: 5′-[…]-3′, R: 5′-[…]-3′); mouse Mitf (F: 5′-[…]-3′, R: 5′-[…]-3′).
(§4) Supplementary Figure 39. WYC-209 decreases Sox2 expression but has no effects on Mitf expression. Murine melanoma cells B16-F1 were seeded into 3D soft fibrin gels and then were treated with 0.1% DMSO, 0.1, 1 or 10 µM WYC-209, WYC-209A, or WYC-209B on day 4. mRNA of cells were extracted after 24 hours. Sox2 (a) and Mitf (b) expressions […]
as §1
For orientation: In qPCR the cycle at which signal appears reflects the starting amount.

Data set [5] relates to human malignant melanoma A375. Briefly: Colony growth of A375 TRCs in 90-Pa fibrin gels. The class given is cell-based. Particulars: Homo sapiens. The method, then: as §2
A further data set concerns human lung cancer A549. Briefly: Colony growth of A549 TRCs in 90-Pa fibrin gels. In kind it is cell-based. The procedure: as §2
Another data set deals with Sox2. Nature of the data set: Sox2 expression by qPCR in TRCs. In kind it is cell-based, murine. The procedure: as §3, §4, §1
The next data set deals with 3T3 fibroblasts. Briefly: Non-cancerous 3T3 fibroblasts on rigid dishes. The class given is cell-based, murine. The settings on record: 0.1, 1, or 10 μM, 18 hrs. The method, then:
Murine fibroblast cell line 3T3 cells were cultured on rigid plastic and treated with 0.1, 1, or 10 μM WYC-209 at the time of plating and observed for 18 hrs. Cell nucleus were stained with DAPI and apoptotic cells were assayed with PI. None: medium only; DMSO: medium containing 0.1% DMSO. (a) Representative images of cells at hour 18. (b) Quantitation of cell numbers per view field at hour 18. Mean ± s.e.m.; n= 5 randomly chosen view-fields; 3 separate experiments; no significant differences were observed between groups (Student’s t-test). Scale bars, 500 μm.
as §1

Where [6] appears, read: pretreated with 10 µM, at least 5 days.

Chain of hERG channels (Q12809 whole entry): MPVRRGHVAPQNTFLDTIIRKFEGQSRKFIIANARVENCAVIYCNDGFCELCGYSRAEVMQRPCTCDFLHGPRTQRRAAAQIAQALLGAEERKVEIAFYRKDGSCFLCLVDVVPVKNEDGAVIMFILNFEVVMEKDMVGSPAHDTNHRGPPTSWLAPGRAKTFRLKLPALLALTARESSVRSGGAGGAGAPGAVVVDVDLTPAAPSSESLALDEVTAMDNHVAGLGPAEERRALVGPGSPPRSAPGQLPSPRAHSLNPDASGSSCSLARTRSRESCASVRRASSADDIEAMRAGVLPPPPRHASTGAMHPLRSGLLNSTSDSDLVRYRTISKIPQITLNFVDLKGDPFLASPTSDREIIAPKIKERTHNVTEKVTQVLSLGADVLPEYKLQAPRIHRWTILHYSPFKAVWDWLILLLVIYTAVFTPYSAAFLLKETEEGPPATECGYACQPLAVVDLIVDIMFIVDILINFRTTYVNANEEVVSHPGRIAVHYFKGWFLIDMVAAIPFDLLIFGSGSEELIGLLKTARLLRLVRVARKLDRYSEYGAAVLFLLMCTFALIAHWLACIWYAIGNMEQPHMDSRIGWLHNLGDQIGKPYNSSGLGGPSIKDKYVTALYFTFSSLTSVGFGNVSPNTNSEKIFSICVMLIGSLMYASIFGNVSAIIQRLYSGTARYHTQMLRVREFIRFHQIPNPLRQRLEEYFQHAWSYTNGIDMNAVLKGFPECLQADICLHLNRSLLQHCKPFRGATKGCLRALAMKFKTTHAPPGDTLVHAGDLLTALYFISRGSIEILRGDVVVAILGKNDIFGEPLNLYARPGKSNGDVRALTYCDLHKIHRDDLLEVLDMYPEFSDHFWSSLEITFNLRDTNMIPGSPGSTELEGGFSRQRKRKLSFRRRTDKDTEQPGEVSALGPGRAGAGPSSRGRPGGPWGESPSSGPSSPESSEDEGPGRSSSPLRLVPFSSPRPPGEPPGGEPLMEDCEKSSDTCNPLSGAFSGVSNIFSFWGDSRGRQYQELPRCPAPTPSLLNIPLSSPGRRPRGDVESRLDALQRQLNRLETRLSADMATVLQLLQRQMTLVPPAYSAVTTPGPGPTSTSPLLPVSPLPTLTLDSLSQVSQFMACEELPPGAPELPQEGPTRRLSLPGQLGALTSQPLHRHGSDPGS
T2 sequence (P33261 whole entry): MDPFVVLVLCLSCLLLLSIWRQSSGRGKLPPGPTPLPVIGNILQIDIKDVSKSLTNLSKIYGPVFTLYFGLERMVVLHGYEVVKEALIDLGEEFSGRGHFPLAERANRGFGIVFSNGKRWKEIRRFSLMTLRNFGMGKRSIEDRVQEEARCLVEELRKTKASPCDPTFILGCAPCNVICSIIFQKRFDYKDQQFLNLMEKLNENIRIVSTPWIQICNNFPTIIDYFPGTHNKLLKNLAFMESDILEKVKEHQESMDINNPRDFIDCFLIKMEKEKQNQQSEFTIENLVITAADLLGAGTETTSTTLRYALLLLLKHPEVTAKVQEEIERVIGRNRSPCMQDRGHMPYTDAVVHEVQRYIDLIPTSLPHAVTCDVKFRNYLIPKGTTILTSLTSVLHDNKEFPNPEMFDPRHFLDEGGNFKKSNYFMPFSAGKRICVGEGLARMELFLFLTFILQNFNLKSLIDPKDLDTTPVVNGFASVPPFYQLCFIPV

Turning to `CCOC(=O)c1cnc(C#Cc2ccc3c(c2)C(C)(C)CC[S@+]3[O-])nc1` [WYC-209A], the IC50 on hERG channels is more than 30 µM; against CYP 3A4 (first 3A4 column), more than 10 µM; on CYP 3A4 (second 3A4 column), more than 10 µM; at CYP 2C19, more than 10 µM; on CYP 1A2, more than 10 µM; at CYP 2C9, more than 10 µM. The values for the IC50 on CYP 2D6 and with B16-F1 TRCs [2] were more than 10 µM and 0.15 µM, respectively. The concentration in solution in the data set “Water solubility” (solubility at 1 h) was 89.4 µM (≈ 32.9 µg/mL). In the data set with B16-F1 TRCs [1], the “TRC growth after compound washout” value was “failed to resume growing”. Besides, in the data set with B16-F1 TRCs [2], the “IC50 lower / potency higher than that of Tazarotene” value is on record as “about 10 fold”. This compound showed an inhibition at 10 µM in the data set on B16-F1 TRCs [2] of 100%. In addition, the figures for the “Growth after re-plating into new soft fibrin gels without compound” value with B16-F1 TRCs [2] (setting [6]) and in the data set with B16-F1 TRCs [2] (pretreated with 0.1 or 1 μM) were “none of the cells grew at all” and “some tumor cell growth”, respectively. For the same compound, in [3], the “Growth of unselected human cancer cells on 2D rigid dishes” value (“Growth of unselected human cancer cells” below) is given as “completely blocked cell growth”.
As to `CCOC(=O)c1cnc(C#Cc2ccc3c(c2)C(C)(C)CC[S@@+]3[O-])nc1` [WYC-209B], the IC50 against hERG channels was more than 30 µM; on CYP 3A4 (first 3A4 column) it was more than 10 µM; on CYP 3A4 (second 3A4 column) it was more than 10 µM; against CYP 2C19, more than 10 µM; on CYP 1A2, more than 10 µM; against CYP 2C9, more than 10 µM. Besides, the IC50 on CYP 2D6 was more than 10 µM; in the data set with B16-F1 TRCs [2], 0.22 µM. The concentration in solution in the data set “Water solubility” (solubility at 1 h) was 88.1 µM (≈ 32.5 µg/mL). Also, in the data set on B16-F1 TRCs [1], the “TRC growth after compound washout” value was “failed to resume growing”. The “IC50 lower / potency higher than that of Tazarotene” value in the data set with B16-F1 TRCs [2] is “about 10 fold”. Further, the inhibition at 10 µM in the data set on B16-F1 TRCs [2] amounted to 100%. Besides, the “Growth after re-plating into new soft fibrin gels without compound” value in the data set on B16-F1 TRCs [2] (setting [6]) is “none of the cells grew at all”; in the data set on B16-F1 TRCs [2] (pretreated with 0.1 or 1 μM), “some tumor cell growth”. Besides, in data set [3], the “Growth of unselected human cancer cells” value is “completely blocked cell growth”.
Consider `CCOC(=O)c1cnc(C#Cc2ccc3c(c2)C(C)(C)CC[S+]3[O-])nc1` (stereo not drawn) [WYC-209], for which the IC50 is 0.52 µM in [4] (0 h, treated on day 0); 0.38 µM in [5] (A-375, 0 h, A375, treated on day 0); 0.1 µM in the data set with human lung cancer A549 (0 h, A549, treated on day 0); 0.19 µM in the data set on B16-F1 TRCs [2]. Besides, the inhibition at 10 µM stood at 100% in [4] (10 μM); 100% in data set [5] (A-375, A375, 10 μM); 100% with human lung cancer A549 (A549, 10 μM); 100% in the data set with B16-F1 TRCs [2]. In the data set on Mitf, the “Change in Mitf expression” value is “did not change”. Also, the “TRC growth after compound washout” value in the data set on B16-F1 TRCs [1] is reported as “failed to resume growing”. Also, in the data set on Sox2 (10 μM, 24 h), the “Decrease of Sox2 expression” value is ~ 50%. Also, the “Change in Sox2 expression” value with Sox2 (0.1 or 1 µM) is listed as “no change”. The “IC50 lower / potency higher than that of Tazarotene” value with B16-F1 TRCs [2] is given as “about 10 fold”. Further, the “Duration of effect after washout (long-lasting)” value in the data set with B16-F1 TRCs [2] (melanoma TRCs re-plated in fresh medium without compound) is on record as more than 5 days. Also, the figures for the “Growth after re-plating into new soft fibrin gels without compound” value in the data set on B16-F1 TRCs [2] (setting [6]) and with B16-F1 TRCs [2] (pretreated with 0.1 or 1 μM) were “none of the cells grew at all” and “some tumor cell growth”, respectively. Besides, in the data set on 3T3 fibroblasts, the “Impact / toxicity on non-cancerous 3T3 fibroblasts” value is reported as “little toxicity; also recorded: little impact”. In data set [3], the “Growth of unselected human cancer cells” value is recorded as “completely blocked cell growth”.
